Laboratory results as given in the NIST ThermoML archive (doi:10.1007/s10765-006-0051-4).

Test: xn = mol fraction of the nth substance listed
Conditions: Gas, Oscillating disk viscometry

FC(F)C(F)(F)F [pentafluoroethane] + CCC
Conditions	viscosity [mPa·s]
398.15 K, 5040.9 kPa, x1 = 0.7503	0.02051
398.15 K, 5179.6 kPa, x1 = 0.5011	0.01885
398.15 K, 5224.5 kPa, x1 = 0.7503	0.02087
398.15 K, 5374.2 kPa, x1 = 0.5011	0.01934
398.15 K, 5462.4 kPa, x1 = 0.7503	0.0215
398.15 K, 5801.5 kPa, x1 = 0.7503	0.0224
423.15 K, 101.3 kPa, x1 = 0.5011	0.01525
423.15 K, 102.4 kPa, x1 = 0.7503	0.01671
423.15 K, 194.6 kPa, x1 = 0.7503	0.01672
423.15 K, 200.5 kPa, x1 = 0.5011	0.01531
423.15 K, 336.4 kPa, x1 = 0.7503	0.01676
423.15 K, 390.6 kPa, x1 = 0.5011	0.01537
423.15 K, 570.1 kPa, x1 = 0.7503	0.01682
423.15 K, 586.2 kPa, x1 = 0.5011	0.01537
423.15 K, 781.9 kPa, x1 = 0.5011	0.01543
423.15 K, 812.9 kPa, x1 = 0.7503	0.01692
423.15 K, 960.2 kPa, x1 = 0.5011	0.01542
423.15 K, 1055.8 kPa, x1 = 0.7503	0.01696
423.15 K, 1175.7 kPa, x1 = 0.5011	0.01552
423.15 K, 1254.9 kPa, x1 = 0.7503	0.01706
423.15 K, 1421.7 kPa, x1 = 0.5011	0.01565
423.15 K, 1448.9 kPa, x1 = 0.7503	0.01715
423.15 K, 1640 kPa, x1 = 0.7503	0.01724
423.15 K, 1658.8 kPa, x1 = 0.5011	0.01573
423.15 K, 1898.5 kPa, x1 = 0.5011	0.01584
423.15 K, 1906.4 kPa, x1 = 0.7503	0.0174
423.15 K, 2128.2 kPa, x1 = 0.7503	0.01752
423.15 K, 2142.2 kPa, x1 = 0.5011	0.01598
423.15 K, 2375.9 kPa, x1 = 0.7503	0.01766
423.15 K, 2381.7 kPa, x1 = 0.5011	0.01613
423.15 K, 2575.8 kPa, x1 = 0.5011	0.01623
423.15 K, 2591.5 kPa, x1 = 0.7503	0.01781
423.15 K, 2903.1 kPa, x1 = 0.5011	0.01643
423.15 K, 2919.3 kPa, x1 = 0.7503	0.01808
423.15 K, 3148.8 kPa, x1 = 0.5011	0.01663
423.15 K, 3160.1 kPa, x1 = 0.7503	0.01824
423.15 K, 3289.3 kPa, x1 = 0.7503	0.01836
423.15 K, 3412.8 kPa, x1 = 0.5011	0.01685
423.15 K, 3552.1 kPa, x1 = 0.7503	0.01859
423.15 K, 3651.4 kPa, x1 = 0.5011	0.01705
423.15 K, 3813.6 kPa, x1 = 0.7503	0.01886
423.15 K, 3903.9 kPa, x1 = 0.5011	0.01729
423.15 K, 4061.5 kPa, x1 = 0.7503	0.01916
423.15 K, 4138.6 kPa, x1 = 0.5011	0.01756
423.15 K, 4298.5 kPa, x1 = 0.7503	0.01944
423.15 K, 4492.6 kPa, x1 = 0.7503	0.01962
423.15 K, 4533.7 kPa, x1 = 0.5011	0.01792
423.15 K, 4689.8 kPa, x1 = 0.7503	0.01988
423.15 K, 4822.7 kPa, x1 = 0.5011	0.01823
423.15 K, 4902.5 kPa, x1 = 0.7503	0.02023
423.15 K, 5070 kPa, x1 = 0.7503	0.02042
423.15 K, 5073.7 kPa, x1 = 0.5011	0.01858
423.15 K, 5285.8 kPa, x1 = 0.7503	0.02077
423.15 K, 5357.3 kPa, x1 = 0.5011	0.01897
423.15 K, 5493.3 kPa, x1 = 0.7503	0.02108
423.15 K, 5672.2 kPa, x1 = 0.7503	0.02139
423.15 K, 5701.1 kPa, x1 = 0.5011	0.01947
423.15 K, 5887.3 kPa, x1 = 0.7503	0.02175
423.15 K, 6049.1 kPa, x1 = 0.5011	0.02
423.15 K, 6270.6 kPa, x1 = 0.5011	0.02038
423.15 K, 6494.5 kPa, x1 = 0.5011	0.0208
423.15 K, 6710.2 kPa, x1 = 0.5011	0.02129
